How the values were obtained:
[1] = tested on: MOLT-4; test: Cell viability (CellTiter Glo), compressed perturbation pools with informed pool design, MAX-based deconvolution, MOLT-4; conditions: for DRS: MOLT-4, None (measured individually), informed pool design table; for DRS from MAX-based deconvolution: MOLT-4, Samples, 7 Pick 3 informed perturbation pools;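 as to all read-outs here: higher DRS means a larger drug effect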
Method: (§1) Total cell viability was measured for each sample using an ATP-based luminescence assay (i.e., CellTiter Glo). Each cancer drug was then screened at multiple concentrations ranging from one nM to ten μM in order to generate a dose-response curve and calculate a DRS for each cancer cell line.
(§2) Each cancer drug was cultured with target cells individually. At the end of the screen, samples were either analyzed individually or compressed into pools for analysis. The library was compressed alphabetically into ten cohorts, each of which contained seven cancer drugs present in three out of the seven pools, as shown in Table VII. Said another way, the screening platform 210 generated a “7 pick 3” compressed library by assigning the cancer drugs among different pools. […] The library was also compressed into ten cohorts with pools designed based on information known about each cancer drug, as shown in Table VIII. After cell viability measurement and DRS calculation, the DRS of each cancer drug in the samples generated based on the pools were deconvoluted and compared to the DRS for each cancer drug measured individually.
(§3) In parallel to the exemplary sample compression screen covered in Table VII, perturbations were compressed into pools and then screened. The pools were designed using drug class as a feature with two compression rules (or simply “rules”). The first rule required that drugs from the same class be separated into different cohorts (i.e., mutually exclusive groups of pools). […] A benefit of compressing perturbations is the ability to measure additive, antagonistic, and synergistic effects between drugs in the same pool. However, these effects can negatively impact deconvolution of individual drug effects. Therefore, combinations of drugs for which evidence of clinical toxicity exists can be assigned to different pools in accordance with an informed pooling operation. As new preclinical or clinical evidence of toxic combinations becomes available, the rules implemented by the screening platform 210—and more specifically, its algorithm for compressing members of a library—can be updated accordingly.
(§4) In MAX-based deconvolution, an assumption of neutrality between the compressed perturbations is made. In other words, the perturbation with the largest effect is assumed to be masking the effects, if any, of the other perturbations in the pool. For SUM- and MAX-based deconvolution, qualitative deconvolution is first performed to rank the perturbations in each pool based on size of expected effect. Qualitative deconvolution, as described above, ranks the perturbations in a pool from largest effect size to smallest effect size. The ranking is based on the overlap of each perturbation's unique subset of pools with the highest and lowest measured pools. The perturbation with the largest effect is expected to be present in the pools with the highest measured signal or corresponding metric (e.g., DRS), while the perturbation with the smallest effect is expected to be present in the pools with the lowest measured signal or corresponding metric (e.g., DRS).
(§5) For MAX-based deconvolution, the highest ranked perturbation in the rank order is first assigned an effect size based on the pool with the lowest measured signal or corresponding metric (e.g., DRS) that it is present in. Said another way, the screening platform 210 can identify the highest ranked perturbation in the rank order and then assign an effect size based on the measured signal or corresponding metric (e.g., DRS) of the “weakest” pool in which the highest ranked perturbation is included. The screening platform 210 can repeat this step for the next highest ranked perturbation, and so on until the measurements for each pool have been assigned to one of the perturbations. The effects for the remaining perturbations can be assigned a value of zero, since it is assumed that their effect is masked by the perturbation with the largest effect in each pool.

[2] = tested on: REH; test: Cell viability (CellTiter Glo), compressed perturbation pools with informed pool design, MAX-based deconvolution, REH; conditions: REH; for DRS: None (measured individually), informed pool design table; for DRS from MAX-based deconvolution: Samples, 7 Pick 3 informed perturbation pools;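 as to all read-outs here: higher DRS means a larger drug effect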
Method: as §1, §2, §3, §4, §5

[3] = tested on: MOLT-4; test: Cell viability (CellTiter Glo), library of cancer drugs, individual or sample compression with randomized (alphabetical) pools, MOLT-4; format: cell-based; conditions: for DRS: MOLT-4, None (measured individually); for DRS from deconvolution: MOLT-4, Samples, 7 Pick 3 randomized (alphabetical) sample pools
Method: as §1, §2
(§6) In SUM-based deconvolution, an assumption of additivity is used to quantify the individual effects of each perturbation on each target. Additivity implies that each perturbation effect on each target is positively contributing to the overall effect measured for that pool. This is an accurate assumption for certain experiments, such as when targets or samples are compressed. When targets are pooled—or when samples containing different targets are pooled—the effect of each perturbation on each individual target is diluted. In other words, each perturbation has an isolated effect on a target in culture, and the sum total of the isolated effects are measured when pooled. Therefore, SUM-based deconvolution breaks down the sum total measured for a pool and assigns estimated fractional effects to each compressed perturbation or target in the pool. The screening platform 210 used SUM-based deconvolution for all target and sample compression experiments described above.

[4] = tested on: REH; test: Cell viability (CellTiter Glo), library of cancer drugs, individual or sample compression with randomized (alphabetical) pools, REH; format: cell-based; conditions: REH; for DRS: None (measured individually); for DRS from deconvolution: Samples, 7 Pick 3 randomized (alphabetical) sample pools
Method: as §1, §2, §6

Row | Structure (SMILES) | DRS [1] | DRS from MAX-based deconvolution [1] | DRS [2] | DRS from MAX-based deconvolution [2] | DRS [3] | DRS from deconvolution [3] | DRS [4] | DRS from deconvolution [4]
1 | C[C@]12CC[C@H](O)CC1=CC[C@@H]1[C@@H]2CC[C@]2(C)C(c3cccnc3)=CC[C@@H]12 [Abiraterone] | 0.00 | 0.00 | 0.20 | 0.00 | 0.27 | 0.30 | 0.27 | 0.29
2 | CC#CC(=O)N1CCC[C@H]1c1nc(-c2ccc(C(=O)Nc3ccccn3)cc2)c2c(N)nccn12 [Acalabrutinib] | 0.00 | 0.00 | 0.00 | 0.00 | 0.00 | 0.00 | 0.00 | 0.00
3 | CCc1cc2c(cc1N1CCC(N3CCOCC3)CC1)C(C)(C)c1[nH]c3cc(C#N)ccc3c1C2=O [Alectinib] | 0.70 | 1.19 | 0.00 | 0.00 | 0.00 | 0.00 | 0.20 | 0.00
4 | CC(C)(C#N)c1cc(Cn2cncn2)cc(C(C)(C)C#N)c1 [Anastrozole] | 0.56 | 0.79 | 0.06 | 0.00 | 0.01 | 0.00 | 0.01 | 0.21
5 | C=C(c1ccc(C(=O)O)cc1)c1cc2c(cc1C)C(C)(C)CCC2(C)C [Bexarotene] | 4.84 | 5.31 | 4.94 | 5.97 | 7.00 | 0.00 | 1.00 | 0.00
6 | Cn1cnc2c(F)c(Nc3ccc(Br)cc3F)c(C(=O)NOCCO)cc21 [Binimetinib] | 0.11 | 0.00 | 0.37 | 0.00 | 0.00 | 0.00 | 0.00 | 0.00
7 | CO[C@H]1C(=O)[C@]2(C)[C@@H](OC)C[C@H]3OC[C@@]3(OC(C)=O)[C@H]2[C@H](OC(=O)c2ccccc2)[C@]2(O)C[C@H](OC(=O)[C@H](O)[C@@H](NC(=O)OC(C)(C)C)c3ccccc3)C(C)=C1C2(C)C [Cabazitaxel] | 0.01 | 0.00 | 0.01 | 0.00 | 29.89 | 30.06 | 29.39 | 29.52
8 | COc1cc2nccc(Oc3ccc(NC(=O)C4(C(=O)Nc5ccc(F)cc5)CC4)cc3)c2cc1OC [Cabozantinib] | 0.33 | 0.00 | 0.53 | 0.00 | 2.70 | 9.82 | 8.20 | 9.30
9 | CNC(=O)c1ccc(-c2cnc3ncc(Cc4ccc5ncccc5c4)n3n2)cc1F [Capmatinib] | 0.40 | 0.00 | 0.00 | 0.00 | 0.10 | 7.24 | 0.10 | 1.13
10 | Cc1cc(Nc2ncc(Cl)c(Nc3ccccc3S(=O)(=O)C(C)C)n2)c(OC(C)C)cc1C1CCNCC1 [Ceritinib] | 6.77 | 6.77 | 10.87 | 12.65 | 0.00 | 0.00 | 0.60 | 0.60

From patent US20260378560A1, “APPROACHES TO DESIGNING AND PERFORMING COMPRESSED BIOLOGICAL EXPERIMENTS AND SYSTEMS FOR IMPLEMENTING THE SAME” (EXVIVO LABS INC., priority 2023, published 2026)
